Measurements: patent publication US9187459B2, “Quinazoline-7-ether compounds and methods of use” (NewGen Therapeutics, Inc., priority 2011, dated 2015)
Each block holds one compound with its values, some of them ahead of it.

How the values were obtained:
[1] = biological target: ErbB2 (HER2) (Homo sapiens (Human), UniProt P04626); assay: Kinase inhibition assay (TR-FRET, LanthaScreen), ErbB2 (HER2); assay type: biochemical; settings: ATP 1 mM
Method: 1) The compound is dissolved in DMSO to prepare a 10 mM solution, and was diluted to 100 micoM with water. […] Kinase activity was determined with time-resolved Fret (TR-FRET) assay (LanthaScreen® kinase activity assay, from InVitrogen).
2) The assay is performed in a Black 384-well plate (from Corning). The kinase and the compound was incubated for […] at room temperature. ATP (1 mM) and fluorescein-poly GT were added, and the reaction was incubated for […]. Detection agent SA-XL665 (from Cisbio Assay) and TK Ab-Cryptate detection antibody (from InVitrogen) were added to stop the reaction.
3) The 384-well plate was sealed and incubated for 1 hour. The fluorescence was then measured at […] (Cryptate) and 665 nM (XL655) wavelength.
4) Each concentration of compound was done in triplicate, and vehicle (without compound) and a positive control were used.
Data process: the ratio of fluorescence is calculated (value of fluorescence 665 nM over […]). The results are calculated from: signal=compound fluorescence ratio−vehicle ratio, and the IC50 was calculated based on inhibition curve.

[2] = test system: Human breast cancer BT474 cells; assay: Cell proliferation inhibition assay for BT474 (CCK-8); assay type: cell-based; settings: BT-474, 72 h, text calls it EC50
Method: 1) Human breast cancer BT474 cells were plated 10000 cells/well in a 96-well clear tissue culture plate. The cells were incubated for 24 h at 37° C. to allow adherence.
2) A serials of concentrations of each compound (ranging from 30 uM to 0.16 nM, 5-fold dilution) in 96-well plate, and incubated for 72 h. Each concentration was tested in triplicate. During the cell proliferation assay, BT474 cells were cultured in the complete cell culture solution (low-glucose DMEM containing 5% FBS, 50 ug/ml gentamicin).
3) The culture medium was removed via aspiration, and the cell viability was detected by CCK-8 cell proliferation kit.
4) The EC50 was calculated based on the proliferation curve.

[3] = Pharmacokinetics studies in mice; assay type: in vivo, CD-1 mice; settings: for bioavailability: CD-1, plasma, mouse; for AUC(0-inf) / AUC(0-t) / Cmax / half-life / MRT: CD-1, mouse plasma
Method: (§1) The test article each was dissolved in 10% DMSO and 90% of (40% HP-β-CD in deionized water) to yield concentration at 0.4 mg/mL for intravenous administration, and 1 mg/mL for oral administration.
(§2) Method development and plasma samples analysis were performed by Analytical Sciences Division of the Testing Facility by means of LC-MS/MS. The analytical results were confirmed using quality control samples for intra-assay variation (within day variation). The accuracy of >66% of the quality control samples was between 80-120% of the known value(s).
Each group is consisted 30 CD-1 mice (supplied by Sino-British SIPPR/BK Lab. Animal Ltd., Co, Shanghai), 5-8 week old, 20-28 g body weight. The test articles were administered by a single bolus intravenous injection or via oral gavage.
Any animals in poor health were identified for further monitoring or possible euthanasia.
Blood samples (at least 300 μL/sample) were collected via cardiac puncture after euthanasia by carbon dioxide inhalation at appropriate time points for determination of the plasma concentrations of the test article. Samples were placed in tubes containing K3-EDTA and stored on ice until centrifuged.
Three mice in each group were used for blood collection at each of the 10 time points (Groups 1-10): Pre-dose and post-dose at 5 min, 15 min, 30 min, 1 h, 2 h, 4 h, 6 h, 8 h and 24 h.
The PK blood samples were centrifuged at approximately 8000 rpm for 6 minutes at 2-8° C. and the resulting plasma were separated and stored frozen at approximately −80° C. (following separation, the plasma may be initially placed on ice prior to being stored in the −80° C. freezer). All the plasma samples were labeled with detailed information such as study number, animal number, matrix, time points of collection and date of collection.
Standard set of parameters including Area Under the Curve (AUC(0-t) and AUC(0-∞)), elimination half-live (T1/2), maximum plasma concentration (Cmax), time to reach maximum plasma concentration (Tmax), clearance (CL), and volume of distribution (Vz) were calculated using noncompartmental analysis modules in FDA certified pharmacokinetic program WinNonlin Professional v5.2 (Pharsight, USA) by the Study Director. Furthermore, the Bioavailability was estimated using the following formula:
• AUC(0-t) Area under the curve from the time of dosing to the last measurable concentration • AUC(0-∞) Area under the curve from the time of dosing extrapolated to infinity, based on the last observed concentration • CL Total body clearance, CL=Dose/AUC • Cmax Maximum observed concentration, occurring at Tmax • F Bioavailability • MRT(0-∞) Mean residence time from the time of dosing to infinity • Tmax Time of maximum observed concentration • T1/2 Terminal half-life=ln(2)λz • Vz Volume of distribution based on the terminal phase

[4] = Pharmacokinetics studies in rats; assay type: in vivo, Sprauge Dawley rats; settings: for bioavailability / AUC(0-inf) / AUC(0-t) / Cmax / clearance / half-life / Vd: male, Sprague-Dawley; for bioavailability: plasma, rat; for AUC(0-inf) / AUC(0-t) / Cmax / clearance / half-life / Vd / CL / Vz: rat plasma; for Vd: read-out: Vz
Method: as §1, §2
Each group consisted 3 male Sprauge Dawley rats (7-8 week old, 200-300 g body weight). The test articles were administered by a single bolus intravenous injection via the lateral tail vein or via oral gavage.
Blood samples (approximately 300 μl) were collected via retro-orbital puncture after anaesthesia using mixed gas (CO2:O2=7:3) into tubes containing EDTA-K3 anticoagulant at appropriate time points. 10 time points (Groups 1-2): Pre-dose and post-dose at 5 min, 15 min, 30 min, 1 h, 2 h, 4 h, 6 h, 8 h and 24 h.
The PK blood samples were processed and analyzed using the same methods as in Example 10.

[5] = test system: NCI-N87 xenograft; assay: In vivo efficacy in NCI-N87 xenograft mouse model
Method: NCI-N87 cell line was purchased from ATCC (American Type Culture Collection) and was cultured in RPMI1640+10% FBS+1% P/S antibiotics.
Male Balb/c nude mice, 6-8 week, 18±2 g (supplier: Shanghai SLAC Laboratory Animal Co. Ltd.) were used for the experiment. The purchased mice were adapted to the environment for 7 days before use, and were housed at 22-25° C. with humidity 40-70%, and light cycle with fluorescent light for 12-hour light (8:00-20:00) 12-hour dark. The mice have free access to food and water.
The cancer cells (NCI-N87) were implanted subcutaneous into the nude mice (right flank) with 5.0×10^6 cells in 0.1 ml PBS (50 mice). When the tumor size reaches a volume of 200 (150-200) mm^3, the tumor-bearing nude mice were randomly assigned into groups (10 mice/group), one group was served as vehicle, one group was administrated with Lapatinib ditosylate monoydrate (80 mg/kg, free base of Lapatinib, not salt, p.o. bid). The other two groups were administrated with NT112 (15 and 30 mg/kg, p.o. q.d, respectively). The administration period lasted for 4 weeks.
The mice were monitored twice daily for appearance and behavior, and for signs of morbidity and/or mortality. The tumor volume was measured twice a week, and the body weight was measured immediately before measuring the tumor volume throughout the whole study.
At end of the experiment (compound administration for four weeks), all the tumor-bearing mice were sacrificed by cervical dislocation under deep anesthesia. The tumor mass was resected, and weighed.
Tumor sizes were measured twice weekly in two dimensions using a caliper, and the volume was expressed in mm^3 using the formula: V=½×a×b^2 where a and b are the long and short diameters of the tumor, respectively. The tumor mass was weighed at the end of the experiment after harvested. V=½×a×b^2 (a, b is maximum and minimum diameters respectively). RTV(Relative Tumor Volume)=Vt/Vo • Vo is the tumor volume when the test article is initial administrated • Vt is the tumor volume of every measurement day after test article administration T/C(%)=TRTV/CRTV×100% • TRTV: RTV of test article-treatment group; CRTV: RTV of control group Inhibition rate (%)=(average tumor volume of control group−average cancer volume of test article treatment group)/average tumor volume of control group×100%

Chain of ErbB2 (HER2) (P04626 23-1255): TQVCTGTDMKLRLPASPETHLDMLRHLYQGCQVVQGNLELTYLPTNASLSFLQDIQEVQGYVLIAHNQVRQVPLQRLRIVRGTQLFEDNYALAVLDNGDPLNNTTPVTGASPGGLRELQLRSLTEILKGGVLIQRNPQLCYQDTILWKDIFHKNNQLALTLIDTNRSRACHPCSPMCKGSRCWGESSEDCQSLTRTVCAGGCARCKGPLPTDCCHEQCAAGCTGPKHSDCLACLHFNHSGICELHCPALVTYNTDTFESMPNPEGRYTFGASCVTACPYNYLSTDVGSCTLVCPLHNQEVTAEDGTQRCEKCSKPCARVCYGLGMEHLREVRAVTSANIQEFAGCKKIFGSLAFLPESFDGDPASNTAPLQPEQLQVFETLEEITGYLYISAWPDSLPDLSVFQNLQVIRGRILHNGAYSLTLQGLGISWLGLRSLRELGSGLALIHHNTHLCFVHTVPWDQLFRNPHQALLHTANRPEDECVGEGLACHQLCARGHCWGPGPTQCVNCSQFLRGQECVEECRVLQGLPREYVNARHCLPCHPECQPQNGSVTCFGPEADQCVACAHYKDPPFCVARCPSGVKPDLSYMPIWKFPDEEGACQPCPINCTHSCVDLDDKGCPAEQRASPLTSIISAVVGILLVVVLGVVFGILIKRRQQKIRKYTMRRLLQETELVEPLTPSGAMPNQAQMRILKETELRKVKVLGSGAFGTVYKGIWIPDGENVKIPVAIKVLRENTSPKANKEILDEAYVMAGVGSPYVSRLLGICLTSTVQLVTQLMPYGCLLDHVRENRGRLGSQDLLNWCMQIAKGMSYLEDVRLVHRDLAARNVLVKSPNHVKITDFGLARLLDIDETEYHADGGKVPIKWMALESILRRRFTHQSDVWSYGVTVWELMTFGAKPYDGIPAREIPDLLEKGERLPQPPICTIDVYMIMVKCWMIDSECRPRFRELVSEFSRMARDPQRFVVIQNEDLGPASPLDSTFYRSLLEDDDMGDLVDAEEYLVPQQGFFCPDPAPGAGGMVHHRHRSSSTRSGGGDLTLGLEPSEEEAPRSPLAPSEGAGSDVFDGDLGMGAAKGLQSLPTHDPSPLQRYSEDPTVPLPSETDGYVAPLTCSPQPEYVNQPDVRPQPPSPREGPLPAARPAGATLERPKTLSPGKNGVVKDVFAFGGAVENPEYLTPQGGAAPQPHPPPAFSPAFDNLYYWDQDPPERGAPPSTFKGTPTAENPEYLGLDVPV

Structure (SMILES): CN(C)C/C=C/C(=O)Nc1cc2c(Nc3ccc(F)c(Cl)c3)ncnc2cc1OC[C@H]1[C@@H]2COC[C@@H]21 [NT112]
bioavailability ([3]; IV 1 mg/Kg (reference)): 100%
bioavailability ([3]; PO 5 mg/Kg): 49.7%
AUC(0-inf) ([3]; IV 1 mg/Kg): 592 ng·h/mL
AUC(0-t) ([3]; IV 1 mg/Kg): 575 ng·h/mL
Cmax ([3]; IV 1 mg/Kg): 236 ng/mL
half-life ([3]; IV 1 mg/Kg): 4.44 h
AUC(0-inf) ([3]; PO 5 mg/Kg): 1470 ng·h/mL
AUC(0-t) ([3]; PO 5 mg/Kg): 1420 ng·h/mL
Cmax ([3]; PO 5 mg/Kg): 272 ng/mL
half-life ([3]; PO 5 mg/Kg): 11.1 h
bioavailability ([4]; IV 1 mg/Kg (reference)): 100%
bioavailability ([4]; po, 5 mg/kg): 68%
AUC(0-inf) ([4]; IV 1 mg/Kg): 248 ng·h/mL
AUC(0-t) ([4]; IV 1 mg/Kg): 220 ng·h/mL
Cmax ([4]; IV 1 mg/Kg): 59.3 ng/mL
clearance ([4]; IV 1 mg/Kg): 67.2 mL/min/kg
half-life ([4]; IV 1 mg/Kg): 6.05 h
Vd ([4]; IV 1 mg/Kg): 10.6 L/kg
AUC(0-inf) ([4]; PO 5 mg/Kg): 843 ng·h/mL
AUC(0-t) ([4]; PO 5 mg/Kg): 434 ng·h/mL
Cmax ([4]; PO 5 mg/Kg): 74.9 ng/mL
half-life ([4]; PO 5 mg/Kg): 20 h
exposure and oral bioavailability with oral administration, compared to afatinib ([4]; oral administration): higher exposure and better oral bioavailability
CL ([4]; PO 5 mg/Kg): 98.8 mL/min/kg
Vz ([4]; PO 5 mg/Kg): 51.55 L/kg
side effect ([5]; 15 mg/kg po qd, 4 weeks): without predefined side effect
body weight change ([5]; 30 mg/kg p.o. qd, 7 days/week, onset day 3, maximal day 11, dosing stopped, recovered by day 28): led to body weight loss
RTV T/C ([5]; day 7, 15 mg/kg po qd): < 30%
tumor growth inhibition ([5]; day 7, 15 mg/kg po qd): > 70%
RTV T/C ([5]; day 7, 30 mg/kg po qd): < 30%
tumor growth inhibition ([5]; day 7, 30 mg/kg po qd): > 70%

Structure (SMILES): CS(=O)(=O)CCNCc1ccc(-c2ccc3ncnc(Nc4ccc(OCc5cccc(F)c5)c(Cl)c4)c3c2)o1 [Lapatinib, reference compound]
RTV T/C ([5]; day 7, 80 mg/kg p.o. bid): 31%
tumor growth inhibition rate ([5]; day 7, 80 mg/kg p.o. bid): 69%
tumor inhibition rate ([5]; day 28 (last day of the study), 80 mg/kg p.o. bid): 92.9%

Structure (SMILES): CN(C)C/C=C/C(=O)Nc1cc2c(Nc3ccc(F)c(Cl)c3)ncnc2cc1OC[C@]12COC[C@H]1C2 [Example 3, (E)-N-(7-(((1S,5S)-3-oxa-bicyclo[3.1.0]hexan-1-yl)methoxy)-4-(3-chloro-4-fluorophenylamino)quinazolin-6-yl)-4-(dimethylamino)but-2-enamide]
IC50 [1]: 23 nM
IC50 [2]: 31.8 nM

Structure (SMILES): CN(C)C/C=C/C(=O)Nc1cc2c(Nc3ccc(F)c(Cl)c3)ncnc2cc1OCC1C2COCC21 (stereo not drawn) [Example 2, (E)-N-(7-((3-oxa-bicyclo[3.1.0]hexan-6-yl)methoxy)-4-(3-chloro-4-fluorophenylamino)quinazolin-6-yl)-4-(dimethylamino)but-2-enamide]
IC50 [1]: 6 nM
IC50 [2]: 19.1 nM

Structure (SMILES): CO[C@@H]1CO[C@@H]2[C@H]1OC[C@@H]2Oc1cc2ncnc(Nc3ccc(F)c(Cl)c3)c2cc1NC(=O)/C=C/CN(C)C [Example 1, (E)-N-(7-((3R,3aS,6S,6aS)-hexahydro-3-methoxyfuro[3,2-b]furan-6-yloxy)-4-(3-chloro-4-fluorophenylamino)quinazolin-6-yl)-4-(dimethylamino)but-2-enamide]
IC50 [1]: 25 nM
IC50 [2]: 35.9 nM

Now from value to compound:

IC50 [1]: 91 nM
IC50 [2]: 157 nM
Structure (SMILES): CN(C)C/C=C/C(=O)Nc1cc2c(Nc3ccc(F)c(Cl)c3)ncnc2cc1OCC12COCC1C2 (stereo not drawn) [Example 5, (E)-N-(7-((3-oxa-bicyclo[3.1.0]hexan-1-yl)methoxy)-4-(3-chloro-4-fluorophenylamino)quinazolin-6-yl)-4-(dimethylamino)but-2-enamide]

IC50 [1]: 22 nM
IC50 [2]: 25.6 nM
Structure (SMILES): CN(C)C/C=C/C(=O)Nc1cc2c(Nc3ccc(F)c(Cl)c3)ncnc2cc1OC[C@@]12COC[C@@H]1C2 [Example 4, (E)-N-(7-(((1R,5R)-3-oxa-bicyclo[3.1.0]hexan-1-yl)methoxy)-4-(3-chloro-4-fluorophenylamino)quinazolin-6-yl)-4-(dimethylamino)but-2-enamide]

bioavailability ([3]; IV 1 mg/Kg (reference)): 100%
bioavailability ([3]; PO 5 mg/Kg): 62%
AUC(0-t) ([3]; IV 1 mg/Kg): 54 ng·h/mL
Cmax ([3]; IV 1 mg/Kg): 109 ng/mL
MRT ([3]; IV 1 mg/Kg): 1.6 h
AUC(0-t) ([3]; PO 5 mg/Kg): 167 ng·h/mL
Cmax ([3]; PO 5 mg/Kg): 17.6 ng/mL
MRT ([3]; PO 5 mg/Kg): 9.3 h
bioavailability ([4]; IV 1 mg/Kg (reference)): 100%
bioavailability ([4]; po, 5 mg/kg): 44.7%
AUC(0-inf) ([4]; IV 1 mg/Kg): 147 ng·h/mL
AUC(0-t) ([4]; IV 1 mg/Kg): 137 ng·h/mL
Cmax ([4]; IV 1 mg/Kg): 55.6 ng/mL
clearance ([4]; IV 1 mg/Kg): 114 mL/min/kg
half-life ([4]; IV 1 mg/Kg): 5.12 h
Vd ([4]; IV 1 mg/Kg): 15.2 L/kg
AUC(0-inf) ([4]; PO 5 mg/Kg): 328 ng·h/mL
AUC(0-t) ([4]; PO 5 mg/Kg): 215 ng·h/mL
Cmax ([4]; PO 5 mg/Kg): 49.2 ng/mL
half-life ([4]; PO 5 mg/Kg): 11 h
CL ([4]; PO 5 mg/Kg): 254.3 mL/min/kg
Vz ([4]; PO 5 mg/Kg): 73.02 L/kg
Structure (SMILES): CN(C)C/C=C/C(=O)Nc1cc2c(Nc3ccc(F)c(Cl)c3)ncnc2cc1O[C@H]1CCOC1 [afatinib, reference compound]
